Measured values taken from the supplement of paper PMC11208160.

Test: recombinant UMI read abundance after kanamycin selection (control-corrected) (log10(CPM+1)); higher = more efficient recombination; extreme values may be limits of the assay; sequences stand for … in AGTGCAGAGAAAATCGGCCAGTTTTCTCTGCCTGCAGTCCGCATGCCGTGGGACCCCTTGGGTTCTAACCTGTTGCCTAGATTTATGCAGCGGACTGCCTTTCTCCCAAAGTGATAAACCGG…AGGTTGGTTTCACT; site = the 11-nt donor
How it was run: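 Pooled Escherichia coli screen of donor and donor-binding-loop pairs for the IS621 bridge recombinase. Each pair sits with a 12-nt UMI on a plasmid carrying a promoterless kanamycin gene. The library was co-electroporated with a target plasmid encoding a fixed target and T7-inducible recombinase, then plated with IPTG (0.07 mM) plus kanamycin, or unselected, each in two replicates. Recombinant UMIs were PCR-amplified across the donor–target junction and sequenced. Counts became CPM, averaged over replicates, scaled by control-derived factors and reported as log10(CPM+1).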

Row | Sequence | recombinant UMI read abundance (log10)
1 | GTGGAGACATGGACCGGTTTTCCCGGTAATCCGTATTTGTG (site GTGGAGGCTCA) | 1.4
2 | GTGGAGACATGGACCGGTTTTCCCGGTAATCCGTATTTGTG (site GTGGAGTCTCA) | 1.99
3 | GTGGAGCCATGGACCGGTTTTCCCGGTAATCCGTATTTGTG (site GTGGAGACTCA) | 0.00935
4 | GTGGAGCCATGGACCGGTTTTCCCGGTAATCCGTATTTGTG (site GTGGAGCCTCA) | 0.484
5 | GTGGAGCCATGGACCGGTTTTCCCGGTAATCCGTATTTGTG (site GTGGAGGCTCA) | 0.00706
6 | GTGGAGCCATGGACCGGTTTTCCCGGTAATCCGTATTTGTG (site GTGGAGTCTCA) | 1.74
7 | GTGGAGGCATGGACCGGTTTTCCCGGTAATCCGTATTTGAG (site GTGGAGGCTCA) | 0.00393
8 | GTGGAGGCATGGACCGGTTTTCCCGGTAATCCGTATTTGAG (site GTGGAGGCTCC) | 0.297
9 | GTGGAGGCATGGACCGGTTTTCCCGGTAATCCGTATTTGAG (site GTGGAGGCTCG) | 0.681
10 | GTGGAGGCATGGACCGGTTTTCCCGGTAATCCGTATTTGAG (site GTGGAGGCTCT) | 1.57
11 | GTGGAGGCATGGACCGGTTTTCCCGGTAATCCGTATTTGGG (site GTGGAGGCTCA) | 0.238
12 | GTGGAGGCATGGACCGGTTTTCCCGGTAATCCGTATTTGGG (site GTGGAGGCTCC) | 0.954
13 | GTGGAGGCATGGACCGGTTTTCCCGGTAATCCGTATTTGGG (site GTGGAGGCTCG) | 0.597
14 | GTGGAGGCATGGACCGGTTTTCCCGGTAATCCGTATTTGGG (site GTGGAGGCTCT) | 0.567
15 | GTGGAGGCATGGACCGGTTTTCCCGGTAATCCGTATTTGTA (site GTGGAGGCTAA) | 0.557
16 | GTGGAGGCATGGACCGGTTTTCCCGGTAATCCGTATTTGTA (site GTGGAGGCTCA) | 0.682
17 | GTGGAGGCATGGACCGGTTTTCCCGGTAATCCGTATTTGTA (site GTGGAGGCTGA) | 0.943
18 | GTGGAGGCATGGACCGGTTTTCCCGGTAATCCGTATTTGTA (site GTGGAGGCTTA) | 2.86
19 | GTGGATACATGGACCGGTTTTCCCGGTAATCCGTATTTGCA (site GTGGATACTTG) | 1.84
20 | GTGGCCTCATGGACCGGTTTTCCCGGTAATCCGTATTTGGA (site GTGGCCTCTTC) | 1.43
21 | GTGGCTGCATGGACCGGTTTTCCCGGTAATCCGTATTTGCC (site GTGGCTGCTGG) | 2.44
22 | GTGGGCGCATGGACCGGTTTTCCCGGTAATCCGTATTTGAC (site GTGGGCGCTGT) | 2.43
23 | GTGGGTACATGGACCGGTTTTCCCGGTAATCCGTATTTGTG (site GTGGGTACTCA) | 1.46

Row | Sequence | recombinant UMI read abundance (log10)
24 | GTGGGTTCATGGACCGGTTTTCCCGGTAATCCGTATTTGGC (site GTGGGTTCTGC) | 2.19
25 | GTGGTCGCATGGACCGGTTTTCCCGGTAATCCGTATTTGCG (site GTAGTCGCTCG) | 0.519
26 | GTGGTCGCATGGACCGGTTTTCCCGGTAATCCGTATTTGCG (site GTCGTCGCTCG) | 0.0116
27 | GTGGTCGCATGGACCGGTTTTCCCGGTAATCCGTATTTGCG (site GTGGTCGCTCG) | 1.15
28 | GTGGTCGCATGGACCGGTTTTCCCGGTAATCCGTATTTGCG (site GTTGTCGCTCG) | 0.00973
29 | GTGTAAACATGGACCGGTTTTCCCGGTAATCCGTATTTGCT (site GTGTAAACTAG) | 2.89
30 | GTGTATACATGGACCGGTTTTCCCGGTAATCCGTATTTGCT (site GTGTATACTAG) | 2.44
31 | GTGTCCCCATGGACCGGTTTTCCCGGTAATCCGTATTTGGA (site GTGTCCCCTTC) | 0.0113
32 | GTGTGCACATGGACCGGTTTTCCCGGTAATCCGTATTTGTA (site GTATGCACTTA) | 1.48
33 | GTGTGCACATGGACCGGTTTTCCCGGTAATCCGTATTTGTA (site GTCTGCACTTA) | 0.0255
34 | GTGTGCACATGGACCGGTTTTCCCGGTAATCCGTATTTGTA (site GTGTGCACTTA) | 2.15
35 | GTGTGCACATGGACCGGTTTTCCCGGTAATCCGTATTTGTA (site GTTTGCACTTA) | 0.00854
36 | GTGTTCTCATGGACCGGTTTTCCCGGTAATCCGTATTTGAA (site GTGTTCTCTTT) | 2.52
37 | GTTAAAACATGGACCGGTTTTCCCGGTAATCCGTATTTGGC (site GTTAAAACTGC) | 0
38 | GTTAAAACATGGACCGGTTTTCCCGGTAATCCGTATTTGGC (site GTTACAACTGC) | 0
39 | GTTAAAACATGGACCGGTTTTCCCGGTAATCCGTATTTGGC (site GTTAGAACTGC) | 0.02
40 | GTTAAAACATGGACCGGTTTTCCCGGTAATCCGTATTTGGC (site GTTATAACTGC) | 0
41 | GTTAAATCATGGACCGGTTTTCCCGGTAATCCGTATTTGAA (site GTTAAATCTTT) | 1.62
42 | GTTAAGGCATGGACCGGTTTTCCCGGTAATCCGTATTTGTC (site GTTAAGGCTGA) | 2.82
43 | GTTACACCATGGACCGGTTTTCCCGGTAATCCGTATTTGAA (site GTTACACCTTT) | 0.0186
44 | GTTAGAACATGGACCGGTTTTCCCGGTAATCCGTATTTGCC (site GTTAGAACTGA) | 0
45 | GTTAGAACATGGACCGGTTTTCCCGGTAATCCGTATTTGCC (site GTTAGAACTGC) | 0
46 | GTTAGAACATGGACCGGTTTTCCCGGTAATCCGTATTTGCC (site GTTAGAACTGG) | 0

Row | Sequence | recombinant UMI read abundance (log10)
47 | GTTAGAACATGGACCGGTTTTCCCGGTAATCCGTATTTGCC (site GTTAGAACTGT) | 0
48 | GTTAGAACATGGACCGGTTTTCCCGGTAATCCGTATTTGGG (site GTTAGAACTAC) | 0
49 | GTTAGAACATGGACCGGTTTTCCCGGTAATCCGTATTTGGG (site GTTAGAACTCC) | 0.172
50 | GTTAGAACATGGACCGGTTTTCCCGGTAATCCGTATTTGGG (site GTTAGAACTGC) | 0
51 | GTTAGAACATGGACCGGTTTTCCCGGTAATCCGTATTTGGG (site GTTAGAACTTC) | 0.00779
52 | GTTAGAACATGGACCGGTTTTCCCGGTAATCCGTATTTGTC (site GTTAGAACTGA) | 1.52
53 | GTTAGAACATGGACCGGTTTTCCCGGTAATCCGTATTTGTC (site GTTAGAACTGC) | 0
54 | GTTAGAACATGGACCGGTTTTCCCGGTAATCCGTATTTGTC (site GTTAGAACTGG) | 0
55 | GTTAGAACATGGACCGGTTTTCCCGGTAATCCGTATTTGTC (site GTTAGAACTGT) | 0.013
56 | GTTAGAGCATGGACCGGTTTTCCCGGTAATCCGTATTTGAC (site GTTAGAGCTGT) | 2.46
57 | GTTAGATCATGGACCGGTTTTCCCGGTAATCCGTATTTGGC (site GTTAGAACTGC) | 0
58 | GTTAGATCATGGACCGGTTTTCCCGGTAATCCGTATTTGGC (site GTTAGACCTGC) | 0
59 | GTTAGATCATGGACCGGTTTTCCCGGTAATCCGTATTTGGC (site GTTAGAGCTGC) | 0
60 | GTTAGATCATGGACCGGTTTTCCCGGTAATCCGTATTTGGC (site GTTAGATCTGC) | 1.92
61 | GTTATAACATGGACCGGTTTTCCCGGTAATCCGTATTTGGC (site GTTAAAACTGC) | 0
62 | GTTATAACATGGACCGGTTTTCCCGGTAATCCGTATTTGGC (site GTTACAACTGC) | 0
63 | GTTATAACATGGACCGGTTTTCCCGGTAATCCGTATTTGGC (site GTTAGAACTGC) | 0
64 | GTTATAACATGGACCGGTTTTCCCGGTAATCCGTATTTGGC (site GTTATAACTGC) | 1.28
65 | GTTATTGCATGGACCGGTTTTCCCGGTAATCCGTATTTGAT (site GTTATTGCTAT) | 1.79
66 | GTTCCAGCATGGACCGGTTTTCCCGGTAATCCGTATTTGCA (site GTTCAAGCTTG) | 0
67 | GTTCCAGCATGGACCGGTTTTCCCGGTAATCCGTATTTGCA (site GTTCCAGCTTG) | 1.64
68 | GTTCCAGCATGGACCGGTTTTCCCGGTAATCCGTATTTGCA (site GTTCGAGCTTG) | 0
